Measured values: patent US6869977B1, “Skin moisturization compound” (Colonial Chemical Inc., priority 2004, dated 2005)

System: skin
Conditions: for Rating: 5% sample applied to skin, scale of 1 to 5, 1 being poor and 5 being best
Excerpt: The effect of moisturization can be measured by the appearance of the skin when treated. Untreated skin that is in need of moisturization is rough, scaly and dry looking under the dissection microscope. The application of the moisturization solution to the skin and its effect upon minimizing roughness, scaling and dry appearance is a good measure of moisturization. We performed such an evaluation and rated the performance of a scale of 1 to 5.1 being poor and 5 being best.

C[N+](C)(C)CCO [Choline]
Rating: 4

OCC(O)CO [Glycerin]
Rating: 2

C[N+](C)(CCO)CC(O)CO.[Cl-] (stereo not shown) [Example 3]
Rating: 5 | moisturization effect in words (applied to rough dry skin): very effective moisturization agent
